Laboratory results published in patent US8952024B2, “Herbicidal pyrimidone derivatives” (E I du Pont de Nemours and Company, priority 2009, dated 2015).

How the values were obtained:
Format in all cases: in vivo
[1] = system: blackgrass (Alopecurus myosuroides); experiment: Test B pre-/postemergence plant response
From the text: (§1) Seeds of plant species selected from blackgrass (Alopecurus myosuroides), downy bromegrass (Bromus tectorum), green foxtail (Setaria viridis), Italian ryegrass (Lolium multiflorum), wheat (Triticum aestivum), wild oat (Avena fatua), deadnettle (henbit deadnettle, Lamium amplexicaule), galium (catchweed bedstraw, Galium aparine), bermudagrass (Cynodon dactylon), Surinam grass (Brachiaria decumbens), cocklebur (Xanthium strumarium), corn (Zea mays), large crabgrass (Digitaria sanguinalis), woolly cupgrass (Eriochloa villosa), giant foxtail (Setaria faberii), goosegrass (Eleusine indica), johnsongrass (Sorghum halepense), kochia (Kochia scoparia), lambsquarters (Chenopodium album), morningglory (Ipomoea coccinea), nightshade (eastern black nightshade, Solanum ptycanthum), yellow nutsedge (Cyperus esculentus), pigweed (Amaranthus retroflexus), ragweed (common ragweed, Ambrosia elatior), Russian thistle (Salsola kali), soybean (Glycine max), sunflower (common oilseed sunflower, Helianthus annuus) and velvetleaf (Abutilon theophrasti) were planted into a blend of loam soil and sand and treated preemergence with test compounds formulated in a non-phytotoxic solvent mixture which included a surfactant.
(§2) At the same time, plants selected from these crop and weed species and also winter barley (Hordeum vulgare), canarygrass (Phalaris minor), chickweed (Stellaria media) and windgrass (Apera spica-venti) were planted in pots containing Redi-Earth® planting medium (Scotts Company, 14111 Scottslawn Road, Marysville, Ohio 43041) comprising spaghnum peat moss, vermiculite, wetting agent and starter nutrients and treated with postemergence applications of some of the test chemicals formulated in the same manner. Plants ranged in height from 2 to 18 cm (1- to 4-leaf stage) for postemergence treatments.
(§3) Treated plants and controls were maintained in a greenhouse for 13 to 15 days, after which time all treated plants were visually evaluated and compared to controls. Plant response ratings, summarized in Table B, are based on a scale of 0 to 100 where 0 is no effect and 100 is complete control. A dash (-) response means no test result.

[2] = system: wild oat (Avena fatua); experiment: Test B pre-/postemergence plant response
From the text: as §1, §2, §3

[3] = system: velvetleaf (Abutilon theophrasti); experiment: Test B pre-/postemergence plant response
From the text: as §1, §2, §3

[4] = system: soybean (Glycine max); experiment: Test B pre-/postemergence plant response
From the text: as §1, §2, §3

[5] = system: lambsquarters (Chenopodium album); experiment: Test B pre-/postemergence plant response
From the text: as §1, §2, §3

[6] = system: Surinam grass (Brachiaria decumbens); experiment: Test B pre-/postemergence plant response
From the text: as §1, §2, §3

[7] = system: pigweed (Amaranthus retroflexus); experiment: Test B pre-/postemergence plant response
From the text: as §1, §2, §3

[8] = system: kochia (Kochia scoparia); experiment: Test B pre-/postemergence plant response; conditions: Postemergence
From the text: as §1, §2, §3

[9] = system: wheat (Triticum aestivum); experiment: Test B pre-/postemergence plant response
From the text: as §1, §2, §3

[10] = system: canarygrass (Phalaris minor); experiment: Test B postemergence plant response; conditions: Postemergence
Outline: (§4)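 Plants at the 1- to 4-leaf stage (2 to 18 cm tall), grown in pots of peat moss/vermiculite medium with wetting agent and starter nutrients, received postemergence applications of test chemicals. After 13 to 15 days in a greenhouse, injury was rated visually against untreated controls on a 0 (no effect) to 100 (complete control) scale.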

[11] = system: chickweed (Stellaria media); experiment: Test B postemergence plant response; conditions: Postemergence
Outline: as §4

[12] = system: windgrass (Apera spica-venti); experiment: Test B postemergence plant response; conditions: Postemergence
Outline: as §4

[13] = Postemergence, 31 g ai/ha, 0 to 100 scale (0 no effect, 100 complete control)
[14] = Postemergence, 62 g ai/ha, scale 0 to 100 (0 no effect, 100 complete control)
[15] = Postemergence, 125 g ai/ha, scale 0 (no effect) to 100 (complete control), 13 to 15 days
[16] = Postemergence, 250 g ai/ha, scale 0 to 100 (0 no effect, 100 complete control), 13 to 15 days
[17] = Preemergence, 31 g ai/ha, scale 0 to 100 (0 no effect, 100 complete control)
[18] = Preemergence, 62 g ai/ha, scale 0 to 100 (0 no effect, 100 complete control)
[19] = Preemergence, 125 g ai/ha, scale 0 to 100, 0 no effect, 100 complete control
[20] = Preemergence, 250 g ai/ha, 0 to 100 scale
[21] = 31 g ai/ha, 0 to 100 scale (0 no effect, 100 complete control)
[22] = 62 g ai/ha, scale 0 to 100 (0 no effect, 100 complete control)
[23] = 125 g ai/ha, scale 0 (no effect) to 100 (complete control), 13 to 15 days
[24] = 250 g ai/ha, scale 0 to 100 (0 no effect, 100 complete control), 13 to 15 days

With CCc1ccccc1-n1c(-c2ccccc2)ncc(C(=O)C2=C(O)CCCC2=O)c1=O [Compound 255] the “Plant response rating, Blackgrass” value [1, 13] was 5, the “Plant response rating, Blackgrass” value [1, 14] was 5 and the “Plant response rating, Blackgrass” value [1, 15] was 10. For the same compound, the “Plant response rating, Blackgrass” value [1, 16] was 60, the “Plant response rating, Blackgrass” value [1, 17] was 0 and the “Plant response rating, Blackgrass” value [1, 18] was 20. For the same compound, the “Plant response rating, Blackgrass” value [1, 19] was 40, the “Blackgrass plant response rating” value [1, 20] was 60 and the “Plant response rating, Oat, Wild” value [2, 13] was 65. The “Plant response rating, Oat, Wild” value [2, 14] was 80, the “Plant response rating, Oat, Wild” value [2, 15] was 85 and the “Plant response rating, Oat, Wild” value [2, 16] was 90. The “Plant response rating, Oat, Wild” value [2, 17] was 0, the “Plant response rating, Oat, Wild” value [2, 18] was 0 and the “Plant response rating, Oat, Wild” value [2, 19] was 60. For the same compound, the “Oat, Wild plant response rating” value [2, 20] was 90, the “Plant response rating, Velvetleaf” value [3, 13] was 95 and the “Plant response rating, Velvetleaf” value [3, 14] was 98. For the same compound, the “Plant response rating, Velvetleaf” value [3, 15] was 98, the “Plant response rating, Velvetleaf” value [3, 16] was 100 and the “Plant response rating, Velvetleaf” value [3, 17] was 80. For the same compound, the “Plant response rating, Velvetleaf” value [3, 18] was 95, the “Plant response rating, Velvetleaf” value [3, 19] was 98 and the “Velvetleaf plant response rating” value [3, 20] was 100. For the same compound, the “Plant response rating, Soybean” value [4, 13] was 95, the “Plant response rating, Soybean” value [4, 14] was 95 and the “Plant response rating, Soybean” value [4, 15] was 100. The “Plant response rating, Soybean” value [4, 16] was 100, the “Plant response rating, Soybean” value [4, 17] was 0 and the “Plant response rating, Soybean” value [4, 18] was 0. For the same compound, the “Plant response rating, Soybean” value [4, 19] was 15, the “Soybean plant response rating” value [4, 20] was 80 and the “Plant response rating, Lambsquarters” value [5, 13] was 90. For the same compound, the “Plant response rating, Lambsquarters” value [5, 14] was 95, the “Plant response rating, Lambsquarters” value [5, 15] was 98 and the “Plant response rating, Lambsquarters” value [5, 16] was 100. For the same compound, the “Plant response rating, Lambsquarters” value [5, 17] was 98, the “Plant response rating, Lambsquarters” value [5, 18] was 100 and the “Plant response rating, Lambsquarters” value [5, 19] was 100. The “Lambsquarters plant response rating” value [5, 20] was 100, the “Plant response rating, Surinam Grass” value [6, 13] was 80 and the “Plant response rating, Surinam Grass” value [6, 14] was 80. For the same compound, the “Plant response rating, Surinam Grass” value [6, 15] was 90, the “Plant response rating, Surinam Grass” value [6, 16] was 90 and the “Plant response rating, Surinam Grass” value [6, 17] was 65. For the same compound, the “Plant response rating, Surinam Grass” value [6, 18] was 85, the “Plant response rating, Surinam Grass” value [6, 19] was 95 and the “Surinam Grass plant response rating” value [6, 20] was 100. The “Plant response rating, Pigweed” value [7, 13] was 80, the “Plant response rating, Pigweed” value [7, 14] was 98 and the “Plant response rating, Pigweed” value [7, 15] was 98. For the same compound, the “Plant response rating, Pigweed” value [7, 16] was 100, the “Plant response rating, Pigweed” value [7, 17] was 100 and the “Plant response rating, Pigweed” value [7, 18] was 100. For the same compound, the “Plant response rating, Pigweed” value [7, 19] was 100, the “Pigweed plant response rating” value [7, 20] was 100 and the “Plant response rating, Kochia” value [8, 21] was 10. The “Plant response rating, Kochia” value [8, 22] was 15, the “Plant response rating, Kochia” value [8, 23] was 15 and the “Plant response rating, Kochia” value [8, 24] was 65. The “Plant response rating, Wheat” value [9, 13] was 35, the “Plant response rating, Wheat” value [9, 14] was 40 and the “Plant response rating, Wheat” value [9, 15] was 50. For the same compound, the “Plant response rating, Wheat” value [9, 16] was 80, the “Plant response rating, Wheat” value [9, 17] was 0 and the “Plant response rating, Wheat” value [9, 18] was 0. The “Plant response rating, Wheat” value [9, 19] was 0, the “Wheat plant response rating” value [9, 20] was 5 and the “Plant response rating, Canarygrass” value [10, 21] was 50. For the same compound, the “Plant response rating, Canarygrass” value [10, 22] was 50, the “Plant response rating, Canarygrass” value [10, 23] was 50 and the “Plant response rating, Canarygrass” value [10, 24] was 60. For the same compound, the “Plant response rating, Chickweed” value [11, 21] was 95, the “Plant response rating, Chickweed” value [11, 22] was 98 and the “Plant response rating, Chickweed” value [11, 23] was 100. For the same compound, the “Plant response rating, Chickweed” value [11, 24] was 100, the “Plant response rating, Windgrass” value [12, 21] was 50 and the “Plant response rating, Windgrass” value [12, 22] was 80. The “Plant response rating, Windgrass” value [12, 23] was 80 and the “Plant response rating, Windgrass” value [12, 24] was 95.
For COCCCn1c(-c2cccc(F)c2)ncc(C(=O)C2=C(O)C3CCC(C3)C2=O)c1=O (centres unmarked) [Compound 238], the “Plant response rating, Blackgrass” value [1, 13] was 40, the “Plant response rating, Blackgrass” value [1, 14] was 60 and the “Plant response rating, Blackgrass” value [1, 15] was 60. The “Plant response rating, Blackgrass” value [1, 16] was 70, the “Plant response rating, Oat, Wild” value [2, 13] was 30 and the “Plant response rating, Oat, Wild” value [2, 14] was 35. The “Plant response rating, Oat, Wild” value [2, 15] was 50, the “Plant response rating, Oat, Wild” value [2, 16] was 60 and the “Plant response rating, Velvetleaf” value [3, 13] was 80. For the same compound, the “Plant response rating, Velvetleaf” value [3, 14] was 90, the “Plant response rating, Velvetleaf” value [3, 15] was 100 and the “Plant response rating, Velvetleaf” value [3, 16] was 100. The “Plant response rating, Soybean” value [4, 13] was 98, the “Plant response rating, Soybean” value [4, 14] was 100 and the “Plant response rating, Soybean” value [4, 15] was 100. For the same compound, the “Plant response rating, Soybean” value [4, 16] was 100, the “Plant response rating, Lambsquarters” value [5, 13] was 100 and the “Plant response rating, Lambsquarters” value [5, 14] was 100. The “Plant response rating, Lambsquarters” value [5, 15] was 100, the “Plant response rating, Lambsquarters” value [5, 16] was 100 and the “Plant response rating, Surinam Grass” value [6, 13] was 95. The “Plant response rating, Surinam Grass” value [6, 14] was 100, the “Plant response rating, Surinam Grass” value [6, 15] was 100 and the “Plant response rating, Surinam Grass” value [6, 16] was 100. For the same compound, the “Plant response rating, Pigweed” value [7, 13] was 100, the “Plant response rating, Pigweed” value [7, 14] was 100 and the “Plant response rating, Pigweed” value [7, 15] was 100. The “Plant response rating, Pigweed” value [7, 16] was 100, the “Plant response rating, Kochia” value [8, 21] was 90 and the “Plant response rating, Kochia” value [8, 22] was 98. The “Plant response rating, Kochia” value [8, 23] was 100, the “Plant response rating, Kochia” value [8, 24] was 100 and the “Plant response rating, Wheat” value [9, 13] was 40. The “Plant response rating, Wheat” value [9, 14] was 45, the “Plant response rating, Wheat” value [9, 15] was 80 and the “Plant response rating, Wheat” value [9, 16] was 80. The “Plant response rating, Canarygrass” value [10, 21] was 20, the “Plant response rating, Canarygrass” value [10, 22] was 25 and the “Plant response rating, Canarygrass” value [10, 23] was 30. The “Plant response rating, Canarygrass” value [10, 24] was 30, the “Plant response rating, Chickweed” value [11, 21] was 80 and the “Plant response rating, Chickweed” value [11, 22] was 90. For the same compound, the “Plant response rating, Chickweed” value [11, 23] was 100, the “Plant response rating, Chickweed” value [11, 24] was 100 and the “Plant response rating, Windgrass” value [12, 21] was 45. The “Plant response rating, Windgrass” value [12, 22] was 70, the “Plant response rating, Windgrass” value [12, 23] was 85 and the “Plant response rating, Windgrass” value [12, 24] was 95.
